Consider one compound from patent US20210009624A1, “[18F] FMAU LABELING FOR PET IMAGING OF CANCER PATIENTS” (University of Southern California, priority 2018, published 2021).

Data set [1] concerns primary breast tumor as well as metastatic disease. Put plainly: PET imaging of [18F]FMAU in breast cancer patients (Phase I). Type of data set: in vivo, human. The conditions noted are these: FIG. 3. The text has this:
(§1) In addition to animal models, we also studied the [^18F]FMAU obtained through our synthesis method using the labeling kit in patients (Phase I) with known breast and prostate cancer. […] In view of the promising clinical Phase I data of [^18F]FMAU, it is clear that FMAU is a promising candidate for PET imaging of tumor cell proliferation, and may ultimately complement the role of FLT or other cell proliferation markers currently under development.

The nature of data set [2]: Adverse reactions in Phase I patients with breast and prostate cancer. The conditions noted are these: all studied patients (Phase I, known breast and prostate cancer). The format is in vivo, human.
Description: as §1

A short description of data set [3]: Circulating metabolites in human blood after injection of [18F]FMAU. The format is in vivo. The note with it: human blood at 1 hour post-injection.
Description: as §1

Structures are written as SMILES.

Consider `Cc1cn([C@@H]2O[C@H](CO)C(O)C2[18F])c(=O)[nH]c1=O` (stereo partly drawn) [[^18F]FMAU, 2′-deoxy-2′-[^18F]fluoro-5-methyl-1-beta-D-arabinofuranosyl-uracil], for which, in data set [1], the “primary breast tumor as well as metastatic disease uptake of [18F]FMAU (PET imaging)” value is reported as “excellent”. Also, the adverse reactions result in data set [2] is “No adverse reactions were observed”. In data set [3], the “circulating metabolites in human blood” value is recorded as “No major circulating metabolites were identified”.
